Measurements: patent US6599541B1, “Composition for treatment of drug resistant bacterial infections and a method of treating drug resistant bacterial infections” (priority 1999, dated 2003)
In brackets after ≈: the same amount, converted by molar mass. Where two headings read alike, the source gives them in different places.

How the values were obtained:
[1] = highest serum concentration reached after the maximum therapeutic dose in-vivo; cited from earlier work
Staphylococcus aureus [2] = assay: Agar Dilution Method of Sensitivity testing, NE alone and NE + antibiotic; type: cell-based; details: resistant S. aureus cultures, 48 hours
Method: Two kinds of investigations were carried-out using these bacterial isolates—using an Agar Dilution Method of Sensitivity testing.
i) To ascertain whether, NE can work as an antibacterial substance on its own. For this purpose, a stock-solution of NE was prepared and was sterilized as described in the preliminary experiments.
ii) This stock-solution was dispensed into the culture medium (Mueller Hinton Agar) so as to provide while; the medium was in liquid form. Four different concentrations of NE, viz.
iii) This medium was poured into petri dishes and allowed to solidify. Resistant cultures were inoculated on to these plates and after incubation for 48 hours, the growth patterns were assessed.
iv) The experiments were run in triplicate, for each concentration—as per standard practices of microbiological testing procedures.
i) The culture medium (Mueller Hinton Agar) was melted and distributed into a number of test tubes.
ii) The stock solution of NE was dispensed into these test tubes in four different concentrations viz.
iii) In the same medium, one of the antibiotics under investigation was also added so as to provide a variable concentration (at break-even point concentration) as described below:
iv) The culture medium containing NE extract+the antibiotic were poured into petri dishes and allowed to solidify.
v) The resistant bacterial strains were inoculated onto these plates, incubated for 48 hours and the growth patterns were studied on each plate.
These cultures were obtained various clinical samples, such as sputum, non-healing infected wounds, throat swabs etc.

Salmonella senftenberg [3] = assay: Broth Macro Dilution Test, MIC and MBC; type: cell-based; details: Salmonella enterica, Example 13: strain from burn wound swab culture, antibiotic alone
Source text: (§1) This was done by estimation of the Minimum Inhibitory Concentration (MIC) and Minimum Bactericidal Concentration (MBC) on the selected isolates by a Broth Macro Dilution Test.
(§2) While conducting these tests, the guidelines given by the National committee of Clinical Laboratory Standards 1995 protocols were employed. Cation Supplemented Mueller Hinton Broth was used as medium for all organisms excepting for β haemolytic streptococci for which, Todd Hewit's Broth was used as medium.
(§3) The following concentrations of antibiotics were tested to determine MIC and MBC.
(§4) Co-trimoxazole (Sulpharnethoxazole/Trimethoprim/μg/μg per ml)
(§5) A minimum inhibitory concentration is the lowest level of antibiotic needed to cause an inhibition to bacterial growth in culture medium whereas, the minimum bactericidal concentration is the lowest concentration of antibiotic to achieve a 100% killing of bacteria. Thus, these two values are the practical indices of intensity of bacterial resistance to a given antibiotic. On the other hand, a break-even point of any antibiotic indicates the attainable blood levels after an administration of full dose, in human/animal body. Thus, this point indicates the practical dosage of administering any given antibiotic effectively and beyond this point, even if an antibiotic is found to act effectively in experimental situation—such dose cannot be administered in a clinical situation.

Klebsiella pneumoniae [4] = assay: Broth Macro Dilution Test, MIC and MBC; type: cell-based; details: Klebsiella pneumoniae, antibiotic alone
Source text: as §1, §2, §3, §4, §5

Staphylococcus aureus [5] = assay: Broth Macro Dilution Test, MIC and MBC; type: cell-based; details: Example 12: strain from non-healing burn wound swab culture, antibiotic alone
Method: as §1
Cation Supplemented Mueller Hinton Broth was used as medium for all organisms excepting for β haemolytic streptococci for which, Todd Hewit's Broth was used as medium.
as §3, §5

Staphylococcus aureus [6] = assay: Broth tube test of NE with antibiotic at break point, percentage of killing; type: cell-based; details: Example 12 strain
Method: (§6) Since all the study isolates are resistant to the concerned antibiotics, each antibiotic is taken at its breakpoint concentration, (the highest serum concentration of that particular antibiotic reached after the maximum therapeutic dose in-vivo). The break points for various antibiotics are as follows:
(§7) Preparation of Neem Extract: Stock solution of neem extract (1 mg/ml) was prepared, filtered and autoclaved. It was used in 4 concentrations—1000 μg/ml; 500 μg/ml; 250 μg/ml; 125 μg/ml.
(§8) A set of four tubes with variable concentrations of the extract is prepared and to each of these tubes, the break point concentration of antibiotics is added. Now, these sets are inoculated with the study isolate in the same manner as per the broth dilution procedure. A set of six controls is inoculated with each isolate—in parallel with the main experiment.
(§9) 2. Only antibiotic solution
(§10) 3. Medium and antibiotic solution with inoculum
(§11) 5. Only Neem extract at 250 μg/ml
(§12) 6. Medium with Neem Extract and inoculum
(§13) Reading the test All the tests and control tubes are observed for visible turbidity of growth first. Since all the study isolates were earlier confirmed to be resistant to the antibiotics, the bacterial growth is expected at the breakpoint concentration of the antibiotic. Any reduction in the turbidity as compared to the control tube no. 3 is noted as a possible additive or synergistic effect of the neem extract with the antibiotic. In absence of such effect, the tubes may show growth matching with the control no. 4.
(§14) In case of a positive result, further sub-culturing was taken up, on solid media for colony counts with a calibrated loop. The colony counts could be noted by a semi quantitative method as 101 to 10^5 CFU/ml (Colony forming units). This is finally expressed as the percentage of killing as compared to the colony count obtained with control no. 4. Usually control tubes no. 3, 4 and 6 had similar colony counts.

Salmonella senftenberg [7] = assay: as above; type: cell-based; details: Example 13 strain
Method: as §6, §7, §8, §9, §10, §11, §12, §13, §14

Enterobacter spp. [8] = assay: as above; type: cell-based; details: for bacterial growth in control tubes: NE and antibiotic added individually; for bactericidal effect: antibiotic 4 μg/ml (break point) combined with NE 125, 250, 500, 1000 μg/ml
Method: as §6, §7, §8, §9, §10, §11, §12, §13, §14

Escherichia coli [9] = assay: as above; type: cell-based; details: for bacterial growth in control tubes: NE and antibiotic added individually; for bactericidal effect: antibiotic 4 μg/ml (break point) combined with NE 125, 250, 500, 1000 μg/ml
Method: as §6, §7, §8, §9, §10, §11, §12, §13, §14

Klebsiella pneumoniae [10] = assay: as above; type: cell-based; details: for bacterial growth in control tubes: NE and antibiotic added individually
Method: as §6, §7, §8, §9, §10, §11, §12, §13, §14

Enterobacter spp. [11] = assay: Broth Macro Dilution Test, MIC and MBC; type: cell-based; details: antibiotic alone
Source text: as §1, §2, §3, §5

Escherichia coli [12] = assay: Broth Macro Dilution Test, MIC and MBC; type: cell-based; details: resistant to Ciprofloxacin, antibiotic alone, read-out: minimum bactericidal concentration (MBC)
Source text: as §1, §2, §3, §5

[13] = antibiotic at break-even point + NE 125 μg/mL
[14] = antibiotic at break-even point + NE 250 μg/mL
[15] = antibiotic at break-even point + NE 500 μg/mL
[16] = antibiotic at break-even point + NE 1000 μg/mL
[17] = Example 11: isolate from Endotracheal catheter tip culture

SMILES: CC1(C)S[C@@H]2[C@H](NC(=O)[C@H](N)c3ccc(O)cc3)C(=O)N2[C@H]1C(=O)O [Amoxacillin]
- break point [1]: 16 µg/mL

SMILES: CC1=C(C(=O)O)N2C(=O)[C@@H](NC(=O)[C@H](N)c3ccccc3)[C@H]2SC1 [Cephalexin]
- break point [1]: 18 µg/mL
- Growth Patterns after addition of NE: no. of cultures +++ (growth) (Staphylococcus aureus [2]; [13]): 81
- Growth Patterns after addition of NE: no. of cultures −−− (inhibition of growth) (Staphylococcus aureus [2]; [13]): 21
- Growth Patterns after addition of NE: no. of cultures +++ (growth) (Staphylococcus aureus [2]; [14]): 81
- Growth Patterns after addition of NE: no. of cultures −−− (inhibition of growth) (Staphylococcus aureus [2]; [14]): 21
- Growth Patterns after addition of NE: no. of cultures +++ (growth) (Staphylococcus aureus [2]; [15]): 81
- Growth Patterns after addition of NE: no. of cultures −−− (inhibition of growth) (Staphylococcus aureus [2]; [15]): 21
- Growth Patterns after addition of NE: no. of cultures +++ (growth) (Staphylococcus aureus [2]; [16]): 81
- Growth Patterns after addition of NE: no. of cultures −−− (inhibition of growth) (Staphylococcus aureus [2]; [16]): 21

SMILES: O=C(O)c1cn(C2CC2)c2cc(N3CCNCC3)c(F)cc2c1=O [Ciprofloxacin]
- MBC (Salmonella senftenberg [3]; read-out: MBC): > 128 µg/mL
- MIC (Salmonella senftenberg [3]; read-out: MIC): 32 µg/mL (≈ 96.6 µM)
- MBC (Klebsiella pneumoniae [4]; Example 3: strain from non-healing burn wound, read-out: MBC): > 64 µg/mL
- MIC (Klebsiella pneumoniae [4]; Example 3: strain from non-healing burn wound, read-out: MIC): 16 µg/mL (≈ 48.3 µM)
- MBC (Klebsiella pneumoniae [4]; Example 4: strain from wound swab culture, read-out: MBC): > 128 µg/mL
- MIC (Klebsiella pneumoniae [4]; Example 4: strain from wound swab culture, read-out: MIC): 32 µg/mL (≈ 96.6 µM)
- MBC (Klebsiella pneumoniae [4]; Example 5: isolate from Endotracheal Catheter Tip culture, read-out: minimum bactericidal concentration (MBC)): > 128 µg/mL
- MIC (Klebsiella pneumoniae [4]; Example 5: isolate from Endotracheal Catheter Tip culture, read-out: minimum inhibitory concentration (MIC)): 32 µg/mL (≈ 96.6 µM)
- MBC (Klebsiella pneumoniae [4]; Example 6: isolate from Endotracheal Catheter tip culture, read-out: minimum bactericidal concentration (MBC)): > 128 µg/mL
- MIC (Klebsiella pneumoniae [4]; Example 6: isolate from Endotracheal Catheter tip culture, read-out: minimum inhibitory concentration (MIC)): 32 µg/mL (≈ 96.6 µM)
- MBC (Klebsiella pneumoniae [4]; Example 7: isolate from endotracheal catheter tip culture, read-out: minimum bactericidal concentration (MBC)): > 128 µg/mL
- MIC (Klebsiella pneumoniae [4]; Example 7: isolate from endotracheal catheter tip culture, read-out: minimum inhibitory concentration (MIC)): 32 µg/mL (≈ 96.6 µM)
- MBC (Staphylococcus aureus [5]): > 128 µg/mL
- MIC (Staphylococcus aureus [5]): 32 µg/mL (≈ 96.6 µM)
- break point [1]: 4 µg/mL
- killing (Staphylococcus aureus [6]; antibiotic 4 μg/ml in combination with 250 μg/ml and 125 μg/ml NE): 80%
- bactericidal effect (Staphylococcus aureus [6]; antibiotic 4 μg/ml with 1000 μg/ml, 500 μg/ml of NE): 20%
- killing (Salmonella senftenberg [7]; antibiotic added to 1000 μg/ml NE): 50%
- killing effect (Salmonella senftenberg [7]; antibiotic with 500 μg/ml NE): somewhat low
- killing effect (Salmonella senftenberg [7]; antibiotic with NE at other concentrations (below 500 μg/ml)): not found
- bacterial growth in control tubes (Enterobacter spp. [8]; Example 10 isolate): unhindered
- bactericidal effect (Enterobacter spp. [8]; Example 10 isolate): 80%
- bacterial growth in control tubes (Enterobacter spp. [8]; Example 11 isolate): unhindered
- bactericidal effect (Enterobacter spp. [8]; Example 11 isolate): 50%
- bacterial growth in control tubes (Escherichia coli [9]; Example 1 isolate): unhindered
- bactericidal effect (Escherichia coli [9]; Example 1 isolate): 100%
- bacterial growth in control tubes (Escherichia coli [9]; Example 2 isolate): unhindered
- bactericidal effect (Escherichia coli [9]; Example 2 isolate): 40%
- killing (Klebsiella pneumoniae [10]; Example 3 strain, antibiotic at break point in combination with NE, uniform at 1000, 500, 250, 125 μg/ml): 99%
- killing (Klebsiella pneumoniae [10]; Example 4 strain, antibiotic at break-even concentration with NE, uniform at all four NE concentrations): 90%
- bacterial growth in control tubes (Klebsiella pneumoniae [10]; Example 5 isolate): unhindered
- bactericidal effect (Klebsiella pneumoniae [10]; Example 5 isolate, antibiotic 4 μg/ml (break-even point) combined with NE 125, 250, 500, 1000 μg/ml): 90%
- bacterial growth in control tubes (Klebsiella pneumoniae [10]; Example 6 isolate): unhindered
- bactericidal effect (Klebsiella pneumoniae [10]; Example 6 isolate, antibiotic 4 μg/ml (break point) combined with NE 125, 250, 500, 1000 μg/ml): 80%
- bacterial growth in control tubes (Klebsiella pneumoniae [10]; Example 7 isolate): unhindered
- bactericidal effect (Klebsiella pneumoniae [10]; Example 7 isolate, antibiotic 4 μg/ml (break point) combined with NE 125, 250, 500, 1000 μg/ml): 50%
- MBC (Enterobacter spp. [11]; Enterobacter, Example 10: isolate from Endotracheal Catheter Tip culture, read-out: minimum bactericidal concentration (MBC)): > 128 µg/mL
- MIC (Enterobacter spp. [11]; Enterobacter, Example 10: isolate from Endotracheal Catheter Tip culture, read-out: minimum inhibitory concentration (MIC)): 32 µg/mL (≈ 96.6 µM)
- minimum bactericidal concentration (MBC) (Enterobacter spp. [11]; [17]): > 128 µg/mL
- minimum inhibitory concentration (MIC) (Enterobacter spp. [11]; [17]): 32 µg/mL (≈ 96.6 µM)
- MBC (Escherichia coli [12]; Example 1: isolate from wound infection): 64 µg/mL (≈ 193 µM)
- MBC (Escherichia coli [12]; Example 2: isolate from endotracheal catheter tip culture): > 128 µg/mL
